# Paper PMC5144078, “Bifidobacterium breve UCC2003 metabolises the human milk oligosaccharides lacto-N-tetraose and lacto-N-neo-tetraose through overlapping, yet distinct pathways” (Scientific Reports, 2016)
# Experiments:
# Assay in all cases: HPAEC-PAD product analysis
# [1] = target: T1, LntA (LntAHis) (Bifidobacterium breve, UniProt D4BMY8); type: biochemical; conditions: 20 mM MOPS pH 7.0, 37 °C, 24 h, 1 mg/ml substrate
# T1 construct: gene BIFBRE_03435; GH42 beta-galactosidase; purified His-tagged protein
# [2] = target: T2, LacZ6 (LacZ6His) (Bifidobacterium breve, UniProt D4BR09); conditions: 20 mM MOPS pH 7.0, 37 °C, 24 h, 1 mg/ml substrate
# T2 construct: gene BIFBRE_04539
# [3] = target: T3, NahA (NahAHis) (Bifidobacterium breve, UniProt D4BR02); type: biochemical; conditions: MOPS pH 7.0, 37 °C; lacto-N-triose made in situ from LNT or LNnT by LntA, LntA heat-denatured before NahA addition
# T3 construct: gene BIFBRE_04532; GH20 beta-N-acetylhexosaminidase; N-terminal His10 tag; gene of 660 codons; expressed in Lactococcus lactis NZ9000
# T3 sequence (D4BR02 entry or part of it): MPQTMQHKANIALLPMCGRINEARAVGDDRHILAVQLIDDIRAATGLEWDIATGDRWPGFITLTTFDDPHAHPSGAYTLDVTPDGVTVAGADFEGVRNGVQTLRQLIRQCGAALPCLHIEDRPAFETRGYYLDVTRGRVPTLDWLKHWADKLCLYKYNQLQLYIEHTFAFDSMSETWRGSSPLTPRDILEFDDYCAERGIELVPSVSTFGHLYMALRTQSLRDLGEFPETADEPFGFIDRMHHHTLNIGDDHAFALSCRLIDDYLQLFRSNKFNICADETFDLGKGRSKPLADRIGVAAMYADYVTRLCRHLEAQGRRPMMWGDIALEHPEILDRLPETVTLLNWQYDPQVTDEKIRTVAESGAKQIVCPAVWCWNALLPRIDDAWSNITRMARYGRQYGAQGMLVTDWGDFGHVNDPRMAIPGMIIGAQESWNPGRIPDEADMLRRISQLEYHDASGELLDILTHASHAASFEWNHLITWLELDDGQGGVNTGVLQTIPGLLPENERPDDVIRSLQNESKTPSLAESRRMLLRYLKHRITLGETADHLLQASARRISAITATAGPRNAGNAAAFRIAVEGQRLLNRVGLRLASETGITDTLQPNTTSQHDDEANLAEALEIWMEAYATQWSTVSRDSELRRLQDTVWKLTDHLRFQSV
# T1 sequence (D4BMY8 1-691): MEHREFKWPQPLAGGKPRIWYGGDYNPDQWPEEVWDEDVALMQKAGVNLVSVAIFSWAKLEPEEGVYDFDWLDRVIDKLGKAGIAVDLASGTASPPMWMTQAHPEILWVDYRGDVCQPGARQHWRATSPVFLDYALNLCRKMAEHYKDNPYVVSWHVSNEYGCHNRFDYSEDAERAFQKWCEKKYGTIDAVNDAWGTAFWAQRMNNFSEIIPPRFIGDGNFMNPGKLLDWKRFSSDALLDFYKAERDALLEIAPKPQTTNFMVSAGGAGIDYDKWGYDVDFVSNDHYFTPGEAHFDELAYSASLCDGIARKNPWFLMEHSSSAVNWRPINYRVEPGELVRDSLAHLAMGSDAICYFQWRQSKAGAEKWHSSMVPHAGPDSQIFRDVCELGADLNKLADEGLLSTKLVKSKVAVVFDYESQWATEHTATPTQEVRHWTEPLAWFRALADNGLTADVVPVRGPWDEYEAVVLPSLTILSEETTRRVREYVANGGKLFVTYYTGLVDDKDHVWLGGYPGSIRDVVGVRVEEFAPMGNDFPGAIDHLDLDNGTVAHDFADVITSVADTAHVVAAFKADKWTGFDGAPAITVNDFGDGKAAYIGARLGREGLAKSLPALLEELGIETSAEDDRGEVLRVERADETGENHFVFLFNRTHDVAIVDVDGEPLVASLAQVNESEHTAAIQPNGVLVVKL
# T2 sequence (D4BR09 1-1045): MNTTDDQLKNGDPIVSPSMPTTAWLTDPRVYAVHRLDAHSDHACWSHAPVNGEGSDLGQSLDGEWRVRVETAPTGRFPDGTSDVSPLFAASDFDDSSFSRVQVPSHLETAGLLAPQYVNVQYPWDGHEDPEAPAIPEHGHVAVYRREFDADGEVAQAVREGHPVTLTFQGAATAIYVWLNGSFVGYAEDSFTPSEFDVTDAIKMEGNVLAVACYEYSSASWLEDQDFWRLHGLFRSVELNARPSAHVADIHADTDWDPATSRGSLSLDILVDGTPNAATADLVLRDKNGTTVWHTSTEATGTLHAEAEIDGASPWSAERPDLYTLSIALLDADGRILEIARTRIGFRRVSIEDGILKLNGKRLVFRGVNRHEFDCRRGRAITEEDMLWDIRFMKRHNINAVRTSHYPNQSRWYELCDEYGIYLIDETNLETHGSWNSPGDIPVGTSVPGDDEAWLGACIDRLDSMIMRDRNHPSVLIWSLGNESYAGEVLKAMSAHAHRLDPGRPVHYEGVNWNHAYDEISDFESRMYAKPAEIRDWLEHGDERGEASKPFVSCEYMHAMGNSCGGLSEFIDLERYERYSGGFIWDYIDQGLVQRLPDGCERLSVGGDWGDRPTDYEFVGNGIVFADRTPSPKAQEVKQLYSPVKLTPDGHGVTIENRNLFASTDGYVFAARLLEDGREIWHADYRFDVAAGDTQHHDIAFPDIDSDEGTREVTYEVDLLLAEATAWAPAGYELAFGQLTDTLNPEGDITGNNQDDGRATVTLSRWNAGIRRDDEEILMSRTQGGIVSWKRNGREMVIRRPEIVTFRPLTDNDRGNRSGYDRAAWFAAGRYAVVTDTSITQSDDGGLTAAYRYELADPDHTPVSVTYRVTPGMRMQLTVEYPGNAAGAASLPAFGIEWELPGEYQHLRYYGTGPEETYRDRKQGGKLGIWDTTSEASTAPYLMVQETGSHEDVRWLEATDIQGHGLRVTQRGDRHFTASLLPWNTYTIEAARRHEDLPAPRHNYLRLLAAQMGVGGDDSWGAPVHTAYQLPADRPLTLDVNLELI
SMILES,HPAEC-PAD product analysis [1],HPAEC-PAD product analysis [2],HPAEC-PAD product analysis [3]
"CC(=O)N[C@H]1[C@H](O[C@H]2[C@@H](O)[C@@H](CO)O[C@@H](O[C@H]3[C@H](O)[C@@H](O)C(O)O[C@@H]3CO)[C@@H]2O)O[C@H](CO)[C@@H](O)[C@@H]1O[C@@H]1O[C@H](CO)[C@H](O)[C@H](O)[C@H]1O (stereo partly shown) [LNT, lacto-N-tetraose]",Purified LntAHis was shown to remove the galactose moiety at the non-reducing end,,
"CC(=O)N[C@H]1[C@H](O[C@H]2[C@@H](O)[C@@H](CO)O[C@@H](O[C@H]3[C@H](O)[C@@H](O)C(O)O[C@@H]3CO)[C@@H]2O)O[C@H](CO)[C@@H](O[C@@H]2O[C@H](CO)[C@H](O)[C@H](O)[C@H]2O)[C@@H]1O (stereo partly shown) [LNnT, lacto-N-neotetraose]",Purified LntAHis was capable of removing the galactose moiety at the non-reducing end of LNnT,"Purified LacZ2His and LacZ6His were, under the conditions applied, also capable of hydrolysing LNnT",
CC(=O)N[C@H]1[C@H](O[C@H]2[C@@H](O)[C@@H](CO)O[C@@H](O[C@H]3[C@H](O)[C@@H](O)C(O)O[C@@H]3CO)[C@@H]2O)O[C@H](CO)[C@@H](O)[C@@H]1O (stereo partly shown) [lacto-N-triose],,,"Lacto-N-triose is then hydrolysed by NahA, liberating Lactose and GlcNAc"
